Test results reported in publication PMC4379176, “Unsaturation of Very-Long-Chain Ceramides Protects Plant from Hypoxia-Induced Damages by Modulating Ethylene Signaling in Arabidopsis” (PLoS Genetics, 2015).
Like-named read-outs stand apart in the source and are kept apart here. One block for each compound: values may come before it.

Key:
rCTR1 [1] = biological target: T1, rCTR1 (Arabidopsis thaliana, UniProt Q05609); test: microscale thermophoresis; assay type: binding
T1 construct: gene CTR1; full-length CTR1 coding region, N-terminal GST fusion (pGEX-6P-1), E. coli BL21 (DE3); tag kept (detected by anti-GST)
T1 sequence (Q05609 1-821): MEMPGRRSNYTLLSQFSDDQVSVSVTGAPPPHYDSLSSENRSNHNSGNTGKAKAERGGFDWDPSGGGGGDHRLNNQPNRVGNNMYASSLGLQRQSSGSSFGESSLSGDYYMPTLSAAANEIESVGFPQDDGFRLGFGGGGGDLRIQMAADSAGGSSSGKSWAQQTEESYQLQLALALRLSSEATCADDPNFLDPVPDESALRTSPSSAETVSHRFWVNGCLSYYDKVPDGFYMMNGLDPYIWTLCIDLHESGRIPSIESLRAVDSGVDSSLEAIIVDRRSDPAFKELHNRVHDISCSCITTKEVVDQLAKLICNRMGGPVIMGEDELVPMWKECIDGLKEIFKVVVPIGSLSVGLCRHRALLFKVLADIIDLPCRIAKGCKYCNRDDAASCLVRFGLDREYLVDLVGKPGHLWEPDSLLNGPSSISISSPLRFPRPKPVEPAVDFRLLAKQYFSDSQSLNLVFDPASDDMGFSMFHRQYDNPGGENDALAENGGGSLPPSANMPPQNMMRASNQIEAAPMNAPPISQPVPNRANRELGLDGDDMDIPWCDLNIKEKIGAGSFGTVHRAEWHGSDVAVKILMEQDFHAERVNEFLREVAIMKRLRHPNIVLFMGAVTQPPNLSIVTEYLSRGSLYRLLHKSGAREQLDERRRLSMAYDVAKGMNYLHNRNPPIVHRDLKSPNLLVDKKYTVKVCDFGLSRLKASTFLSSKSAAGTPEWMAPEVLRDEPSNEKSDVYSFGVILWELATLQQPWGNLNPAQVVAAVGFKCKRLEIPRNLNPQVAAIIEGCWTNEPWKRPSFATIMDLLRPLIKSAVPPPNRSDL
Source text: microscale thermophoresis on rCTR1

rCTR1-K [2] = biological target: T2, rCTR1-K (Arabidopsis thaliana, UniProt Q05609); test: microscale thermophoresis; assay type: binding; conditions: liposomes of the lipid, 10 nM RED-labelled protein, 50 mM Tris-HCl pH 7.4, 150 mM NaCl, 10 mM MgCl2, 0.05% Tween-20
T2 construct: gene CTR1; tag kept
Source text: microscale thermophoresis on rCTR1-K

rCTR1-K [3] = biological target: T2, rCTR1-K; test: TR-FRET kinase assay (HTRF KinEASE, STK Substrate 2-biotin); assay type: biochemical; conditions: liposomes pre-incubated 30 min at 4°C; 100 μM ATP, 1 μM STK Substrate 2-biotin; room temperature; inhibition
rCTR1 [4] = biological target: T1, rCTR1; test: as above; assay type: biochemical; conditions: liposomes pre-incubated 30 min at 4°C; 100 μM ATP, 1 μM STK Substrate 2-biotin; room temperature; inhibition
[5] = read-out: Dissociation Constants (K d) / 24:1-Cer

- Kd (rCTR1 [1]; liposomes of the lipid, 10 nM RED-labelled protein, 50 mM Tris-HCl pH 7.4, 150 mM NaCl, 10 mM MgCl2, 0.05% Tween-20, highest liposome concentration 50 μM, no binding seen on filters, read-out: Dissociation Constants (K d) / 18:0-Cer): 50.6 ± 5.2 µM
- Kd (rCTR1-K [2]; read-out: Dissociation Constants (K d) / 18:0-Cer): 49.3 ± 7 µM
Compound: 18:0-Cer

- Kd (rCTR1 [1]; liposomes of the lipid, 10 nM RED-labelled protein, 50 mM Tris-HCl pH 7.4, 150 mM NaCl, 10 mM MgCl2, 0.05% Tween-20, read-out: Dissociation Constants (K d) / 24:0-Cer): 10.8 ± 1.3 µM
- Kd (rCTR1-K [2]; read-out: Dissociation Constants (K d) / 24:0-Cer): 4.3 ± 1.3 µM
Compound: 24:0-Cer

- Kd (rCTR1 [1]; [5]): 1.6 ± 0.1 µM
- Kd (rCTR1-K [2]; [5]): 1 ± 0.1 µM
Compound: CCCCCCCC/C=C\CCCCCCCCCCCCCC(=O)N[C@@H](CO)[C@H](O)/C=C/CCCCCCCCCCCCC [24:1-Cer]
- relative CTR1 activity at 1 nM (rCTR1-K [3]): both rCTR1 and rCTR1-K proteins exhibited decreased kinase activities
- relative CTR1 activity at 1 nM (rCTR1 [4]): both rCTR1 and rCTR1-K proteins exhibited decreased kinase activities
